How the values were obtained:
[1] = tested on: chickweed; experiment: Test E chickweed; type: in vivo, Stellaria media; details: Postemergence
In short: (§1)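 Each compound, carried in a non-phytotoxic solvent blend including surfactant, was applied (postemergence: over the top of young plants at 1- to 4-leaf stage). Plants stayed in the greenhouse about 21 to 28 days before visual comparison with untreated controls.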

[2] = tested on: jointed goatgrass; experiment: Test E jointed goatgrass; type: in vivo, Aegilops cylindrica; details: Postemergence
Method: (§2) Compounds evaluated in this test were formulated in a non-phytotoxic solvent mixture which included a surfactant and applied to plants that were in the 1- to 4-leaf stage (postemergence application). A mixture of sandy loam soil and greenhouse potting mix in a 60:40 ratio was used for the postemergence test.
(§3) Plantings of these crops and weed species were adjusted to produce plants of appropriate size for the postemergence test. All plant species were grown using normal greenhouse practices. Crop and weed species include annual bluegrass (Poa annua), blackgrass (Alopecurus myosuroides), black nightshade (Solanum nigra), chickweed (Stellaria media), common poppy (Papaver rhoeas), deadnettle (Lamium amplexicaule), downy brome (Bromus tectorum), field violet (Viola arvensis), galium (Galium aparine), green foxtail (Setaria viridis), Italian ryegrass (Lolium multiflorum), jointed goatgrass (Aegilops cylindrica), kochia (Kochia scoparia), lambsquarters (Chenopodium album), littleseed canarygrass (Phalaris minor), rape (Brassica napus), redroot pigweed (Amaranthus retroflexus), Russian thistle (Salsola kali), scentless chamomile (Matricaria inodora), spring barley (Hordeum vulgare), sugar beet (Beta vulgaris), sunflower (Helianthus annuus), ivyleaf speedwell (Veronica hederaefolia), spring wheat (Triticum aestivum), winter wheat (Triticum aestivum), wild buckwheat (Polygonum convolvulus), wild mustard (Sinapis arvensis), wild oat (Avena fatua), windgrass (Apera spica-venti) and winter barley (Hordeum vulgare).
(§4) Treated plants and untreated controls were maintained in a greenhouse for approximately 21 to 28 days, after which all treated plants were compared to untreated controls and visually evaluated. […] A dash response (-) means no test result.

[3] = tested on: kochia; experiment: Test E kochia; type: in vivo, Kochia scoparia; details: Postemergence
Method: as §2, §3, §4

[4] = tested on: redroot pigweed; experiment: Test E redroot pigweed; type: in vivo, Amaranthus retroflexus; details: Postemergence
Method: as §2, §3, §4

[5] = tested on: spring wheat; experiment: Test E spring wheat; type: in vivo, Triticum aestivum; details: Postemergence
In short: as §1

[6] = tested on: deadnettle; experiment: Test E deadnettle; type: in vivo, Lamium amplexicaule; details: Preemergence
[7] = tested on: field violet; experiment: Test E field violet; type: in vivo, Viola arvensis; details: Preemergence
[8] = tested on: kochia; experiment: Test E kochia; type: in vivo, Kochia scoparia; details: Preemergence
[9] = tested on: littleseed canarygrass; experiment: Test E littleseed canarygrass; type: in vivo, Phalaris minor; details: Preemergence
[10] = tested on: rape; experiment: Test E rape; type: in vivo, Brassica napus; details: Preemergence
[11] = tested on: Russian thistle; experiment: Test E Russian thistle; type: in vivo, Salsola kali; details: Preemergence
[12] = tested on: wild mustard; experiment: Test E wild mustard; type: in vivo, Sinapis arvensis; details: Preemergence
[13] = tested on: cocklebur; experiment: Test C postemergence cocklebur; type: in vivo, Xanthium strumarium; details: 0 to 100 scale, 0 no effect, 100 complete control
In short: (§5)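 Scores (0 = no effect, 100 = complete control) come from visual comparison with untreated controls after about 14–21 days. Spray formulation was a non-phytotoxic solvent mixture including surfactant; plants grew in a 60:40 sandy loam–potting mix blend.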

[14] = tested on: field bindweed; experiment: Test C postemergence field bindweed; type: in vivo, Convolvulus arvensis; details: 0 to 100 scale, 0 no effect, 100 complete control
In short: as §5

[15] = tested on: large crabgrass; experiment: Test C postemergence large crabgrass; type: in vivo, Digitaria sanguinalis; details: 0 to 100 scale, 0 no effect, 100 complete control
Method: Compounds evaluated in this test were formulated in a non-phytotoxic solvent mixture which included a surfactant and applied to plants that were grown for various periods of time before treatment (postemergence application). A mixture of sandy loam soil and greenhouse potting mix in a 60:40 ratio was used for the postemergence test.
Plantings of these crops and weed species were adjusted to produce plants of appropriate size for the postemergence test. All plant species were grown using normal greenhouse practices. Crop and weed species include arrowleaf sida (Sida rhombifolia), barnyardgrass (Echinochloa crus-galli), cocklebur (Xanthium strumarium), common ragweed (Ambrosia elatior), corn (Zea mays), cotton (Gossypium hirsutum), eastern black nightshade (Solanum ptycanthum), fall panicum (Panicum dichotomiflorum), field bindweed (Convolvulus arvensis), giant foxtail (Setaria faberii), hairy beggarticks (Bidens pilosa), ivyleaf morningglory (Ipomoea hederacea), johnsongrass (Sorghum halepense), ladysthumb smartweed (Polygonum persicaria), lambsquarters (Chenopodium album), large crabgrass (Digitaria sanguinalis), purple nutsedge (Cyperus rotundus), redroot pigweed (Amaranthus retroflexus), soybean (Glycine max), surinam grass (Brachiaria decumbens), velvetleaf (Abutilon theophrasti) and wild poinsettia (Euphorbia heterophylla).
Treated plants and untreated controls were maintained in a greenhouse for approximately 14, to 21 days, after which all treated plants were compared to untreated controls and visually evaluated. Plant response ratings, summarized in Table C, were based upon a 0 to 100 scale where 0 was no effect and 100 was complete control. A dash response (−) means no test result.

[16] = tested on: purple nutsedge; experiment: Test C postemergence purple nutsedge; type: in vivo, Cyperus rotundus; details: 0 to 100 scale, 0 no effect, 100 complete control
In short: as §5

[17] = tested on: wild poinsettia; experiment: Test C postemergence wild poinsettia; type: in vivo, Euphorbia heterophylla; details: 0 to 100 scale, 0 no effect, 100 complete control
In short: as §5

[18] = Rate 250 g/ha, 0 to 100 scale (0 no effect, 100 complete control)
[19] = Rate 500 g/ha, 0 to 100 scale, 0 no effect, 100 complete control
[20] = Rate 125 g/ha, 0 to 100 scale (0 no effect, 100 complete control)
[21] = Rate 500 g/ha, 0 to 100 scale where 0 is no effect and 100 is complete control

CC(C)N(C(=O)n1oc(=O)n(C(C)C)c1=O)c1ccc(Cl)cc1 [Compound 114]
Plant response rating, Chickweed ([1]; Rate 125 g/ha, 0 to 100 scale): 10
Plant response rating, Chickweed [1, 18]: 0
Plant response rating, Chickweed [1, 19]: 10
Plant response rating, Jointed goatgra ([2]; Rate 125 g/ha, 0 to 100 scale): 15
Plant response rating, Jointed goatgra [2, 18]: 5
Plant response rating, Jointed goatgra [2, 19]: 50
Plant response rating, Kochia ([3]; Rate 125 g/ha, 0 to 100 scale): 20
Plant response rating, Kochia [3, 18]: 30
Plant response rating, Kochia [3, 19]: 30
Plant response rating, Redroot pigweed ([4]; Rate 125 g/ha, 0 to 100 scale): 15
Plant response rating, Redroot pigweed [4, 18]: 10
Plant response rating, Redroot pigweed [4, 19]: 20
Plant response rating, Spring Wheat ([5]; Rate 125 g/ha, 0 to 100 scale): 10
Plant response rating, Spring Wheat [5, 18]: 20
Plant response rating, Spring Wheat [5, 19]: 30
Plant response rating, Deadnettle [6, 20]: 20
Plant response rating, Deadnettle ([6]; Rate 250 g/ha, 0 to 100 scale): 20
Plant response rating, Deadnettle [6, 21]: 20
Plant response rating, Field violet [7, 20]: 0
Plant response rating, Field violet ([7]; Rate 250 g/ha, 0 to 100 scale): 0
Plant response rating, Field violet [7, 21]: 10
Plant response rating, Kochia [8, 20]: 25
Plant response rating, Kochia ([8]; Rate 250 g/ha, 0 to 100 scale): 30
Plant response rating, Kochia [8, 21]: 30
Plant response rating, LS canarygrass [9, 20]: 50
Plant response rating, LS canarygrass ([9]; Rate 250 g/ha, 0 to 100 scale): 60
Plant response rating, LS canarygrass [9, 21]: 80
Plant response rating, Rape [10, 20]: 0
Plant response rating, Rape ([10]; Rate 250 g/ha, 0 to 100 scale): 20
Plant response rating, Rape [10, 21]: 50
Plant response rating, Russian thistle [11, 20]: 0
Plant response rating, Russian thistle ([11]; Rate 250 g/ha, 0 to 100 scale): 0
Plant response rating, Russian thistle [11, 21]: 0
Plant response rating, Wild mustard [12, 20]: 50
Plant response rating, Wild mustard ([12]; Rate 250 g/ha, 0 to 100 scale): 40
Plant response rating, Wild mustard [12, 21]: 90

CCn1c(=O)on(C(=O)N(c2ccccc2)C(C)C)c1=O [Compound 117]
Plant response rating, Cocklebur ([13]; Rate 140 g/ha): 0
Plant response rating, Cocklebur ([13]; Rate 280 g/ha): 0
Plant response rating, Cocklebur ([13]; Rate 560 g/ha): 0
Plant response rating, Cocklebur ([13]; Rate 1120 g/ha): 0
Plant response rating Field bindweed ([14]; Rate 140 g/ha): 0
Plant response rating Field bindweed ([14]; Rate 280 g/ha): 30
Plant response rating Field bindweed ([14]; Rate 560 g/ha): 30
Plant response rating Field bindweed ([14]; Rate 1120 g/ha): 40
Plant response rating Large crabgrass ([15]; Rate 140 g/ha): 0
Plant response rating Large crabgrass ([15]; Rate 280 g/ha): 20
Plant response rating Large crabgrass ([15]; Rate 560 g/ha): 60
Plant response rating Large crabgrass ([15]; Rate 1120 g/ha): 80
Plant response rating, Purple nutsedge ([16]; Rate 140 g/ha): 0
Plant response rating, Purple nutsedge ([16]; Rate 280 g/ha): 0
Plant response rating, Purple nutsedge ([16]; Rate 560 g/ha): 10
Plant response rating, Purple nutsedge ([16]; Rate 1120 g/ha): 80
Plant response rating Wild poinsettia ([17]; Rate 140 g/ha): 0
Plant response rating Wild poinsettia ([17]; Rate 280 g/ha): 0
Plant response rating Wild poinsettia ([17]; Rate 560 g/ha): 0
Plant response rating Wild poinsettia ([17]; Rate 1120 g/ha): 0
